Laboratory results as given in patent publication US9896481B2, “Modified mini-hepcidin peptides and methods of using thereof” (priority 2011, dated 2018).
Blank lines part the entries; values can stand above or below the compound they belong to. Non-standard residues stand in square brackets, D forms with d. Residues, ends and D or L forms follow the SMILES beside them. No end group written: not given here. *: point of attachment. Ursodeoxycholyl = C[C@H](CCC(=O)*)[C@H]1CC[C@H]2[C@@H]3[C@@H](O)C[C@@H]4C[C@H](O)CC[C@]4(C)[C@H]3CC[C@]12C; TTDA(Palmitoyl) = CCCCCCCCCCCCCCCC(=O)NCCCOCCOCCOCCCN*; PEG12 = NCCOCCOCCOCCOCCOCCOCCOCCOCCOCCOCCOCCOCCC(=O)O; Dip = N[C@H](C(=O)O)C(c1ccccc1)c1ccccc1; Palmitoyl = CCCCCCCCCCCCCCCC(=O)*; β3hF = N[C@H](CC(=O)O)Cc1ccccc1; NMeD = CN[C@@H](CC(=O)O)C(=O)O; β3hP = O=C(O)C[C@@H]1CCCN1; AEEEA = NCCOCCOCCOCC(=O)O; Dap = NC[C@H](N)C(=O)O

Tests used:
[1] = system: C57/Bl6J mice; assay: Serum iron assay in mice on low-iron diet, 4 hours after peptide; format: in vivo, mouse; design: key to active in vivo: *active in vivo; conditions: for active in vivo: asterisk at the EC50 value of Table 1
Description: The decrease in serum iron after peptide administration is the principal measure of hepcidin activity. Thus, as provided herein, the hepcidin activity of selected peptides of the present invention were assayed in vivo by measuring serum iron in test subjects. Briefly, C57/Bl6J mice were maintained on NIH 31 rodent diet (333 parts per million (ppm) iron; Harlan Teklad, Indianapolis, Ind.). Two weeks before the experiment, the mice were switched to a diet containing about 2-4 ppm iron (Harlan Teklad, Indianapolis, Ind.) in order to suppress endogenous hepcidin. Peptide stocks were diluted to desired concentrations in sterile phosphate buffered saline (PBS) or other diluents as described next. Mice were subjected to the following treatments: (a) Injected intraperitoneally either with 100 μl PBS (control) or with 50 μg peptide in 100 μl PBS; (b) Injected with 100 μl of peptide (or PBS) mixed with 500 μg empty liposomes COATSOME EL series (NOF, Tokyo, Japan) (prepared as per manufacturer's recommendation); (c) Injected with 100 μl peptides (or PBS) solubilized with SL220 solubilization agent (NOF, Tokyo, Japan); (d) Gavaged with 250 μl of peptide (or PBS) in 1× solvent (Cremophor EL (Sigma)/ethanol/PBS; (12.5:12.5:75)). Mice were sacrificed 4 hours later, blood was collected by cardiac puncture, and serum was separated using MICROTAINER tubes (Becton Dickinson, Franklin Lakes, N.J.). Serum iron was determined by using a colorimetric assay (Diagnostic Chemicals, Oxford, Conn.), which was modified for the microplate format so that 10 μl serum was used per measurement. The results were expressed as the percentage of decrease in serum iron when compared with the average value of serum iron levels in PBS-treated mice.

[2] = molecular target: T1, ferroportin tagged at the C-terminus with green fluorescent protein (Fpn-GFP) (Mus musculus, UniProt Q9JHI9); assay: Flow cytometry of ferroportin-GFP degradation in ECR293/Fpn-GFP cells; format: cell-based; conditions: for hepcidin activity relative to Hep25 (in words): FIGS. 1-4
T1 construct: expressed in transfected cells; host or cells: ECR293/Fpn-GFP (stably transfected, ponasterone-inducible)
T1 sequence (Q9JHI9 1-570): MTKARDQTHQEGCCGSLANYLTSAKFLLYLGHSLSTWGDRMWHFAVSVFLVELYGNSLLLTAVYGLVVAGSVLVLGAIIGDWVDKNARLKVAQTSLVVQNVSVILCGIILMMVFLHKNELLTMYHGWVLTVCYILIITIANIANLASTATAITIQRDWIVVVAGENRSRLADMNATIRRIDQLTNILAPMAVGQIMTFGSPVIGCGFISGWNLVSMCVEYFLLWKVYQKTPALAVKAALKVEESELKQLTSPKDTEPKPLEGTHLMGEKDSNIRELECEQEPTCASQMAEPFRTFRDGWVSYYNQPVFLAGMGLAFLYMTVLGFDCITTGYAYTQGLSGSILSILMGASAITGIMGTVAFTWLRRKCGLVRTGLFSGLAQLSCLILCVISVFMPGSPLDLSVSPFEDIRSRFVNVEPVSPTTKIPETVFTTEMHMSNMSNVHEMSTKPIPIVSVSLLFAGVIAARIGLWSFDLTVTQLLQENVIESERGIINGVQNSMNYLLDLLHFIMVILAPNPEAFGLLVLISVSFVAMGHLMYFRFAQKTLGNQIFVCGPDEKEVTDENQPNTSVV
Description: In vitro activity may be measured by the dose-dependent loss of fluorescence of cells engineered to display ferroportin fused to green fluorescent protein as in Nemeth et al. (2006) Blood 107:328-33. Aliquots of cells are incubated for 24 hours with graded concentrations of a reference preparation of Hep25 or a mini-hepcidin. As provided herein, the EC50 values are provided as the concentration of a given compound (e.g. peptide) that elicits 50% of the maximal loss of fluorescence generated by the reference Hep25 preparation.
Mutational studies indicate that C326, the cysteine residue at position 326 of human ferroportin, is the critical residue involved in binding hepcidin. Thus, various N-terminal fragments of Hep25 containing a thiol, i.e. Hep 4-7, Hep3-7, Hep3-8, Hep3-9, Hep1-7, Hep1-8, Hep1-9, and Hep1-10 C7A, were chemically synthesized, refolded and their activities relative to Hep25 were assayed using flow-cytometric quantitation of the ferroportin-GFP degradation, iron efflux estimation based on measurements of cellular ferritin, and radioisotopic iron efflux studies.
The activity of peptides of the present invention was measured by flow cytometry as previously described. See Nemeth et al. (2006) Blood 107:328-333, which is herein incorporated by reference. ECR293/Fpn-GFP, a cell line stably transfected with a ponasterone-inducible ferroportin construct tagged at the C-terminus with green fluorescent protein was used. See Nemeth et al. (2004) Science 306:2090-2093, which is herein incorporated by reference. Briefly, the cells were plated on poly-D-lysine coated plates in the presence of 20 μM FAC, with or without 10 μM ponasterone. After 24 hours, ponasterone was washed off, and cells were treated with peptides for 24 hours. Cells were then trypsinized and resuspended at 1×10^6 cells/ml, and the intensity of green fluorescence was analyzed by flow cytometry. Flow cytometry was performed on FAC SCAN (fluorescence activated cell scanner) Analytic Flow Cytometer (Becton Dickinson, San Jose, Calif.) with […] version 3.3 software (Becton Dickinson). Cells not induced with ponasterone to express Fpn-GFP were used to establish a gate to exclude background fluorescence. Cells induced with ponasterone, but not treated with any peptides, were used as the positive control. Each peptide was tested over the range of concentrations (0, 0.01, 0.03, 0.1, 0.3, 1, 3 and 10 μM). Each peptide treatment was repeated independently 3 to 6 times. For each concentration of peptide, the results were expressed as a fraction of the maximal activity (FHep25) of Hep25 (in the dose range 0.01-10 μM), according to the formula 1−((Fx−FHep25)/(Funtreated−FHep25)), where F was the mean of the gated green fluorescence and x was the peptide.

[3] = system: mouse; assay: Activity at 20 nmoles/mouse: serum iron 4 hours after injection versus solvent (Tables 3 and 4); format: in vivo; design: key: Y: “Active” means that at 4 hours after injection serum iron in peptide-injected mice decreased statistically significantly (p < 0.05) compared to solvent-injected mice; Y*: Exhibits detectable and reproducible activity at about 50% lower than the most active compounds in Table 3 and 4; conditions: Table 3, intraperitoneal
[4] = system: Hamp1-/- mice; assay: Treatment study: 2 weeks daily PR65 in iron-overloaded hepcidin knockout mice; format: in vivo, mouse; conditions: 50 nmoles daily s.c., 14 days
Description: To test the effect of PR65 on iron-loaded Hamp1^−/− mice (“treatment” studies), male mice were kept on the standard diet for their entire lifespan. Beginning at 12-14 weeks of age, 50 nmoles of PR65 or solvent was injected daily by the subcutaneous route for 2 weeks.
To assess the potential of mini-hepcidins as a standalone treatment for iron overload in subjects, 12 week old iron-overloaded hepcidin knockout mice were injected with 50 nmoles of PR65 daily for 14 days. […] In contrast to mice that were iron-depleted before PR65 administration, in mice with established iron overload serum iron levels were not decreased 24 hours after the last dose compared to solvent-treated mice (p=0.682) (FIG. 15B). […] The less than 24 hours duration of the hypoferremic effect of each 50 nmoles dose may have been due to the severe iron overload of the hepcidin knockout mice at this age. Accumulated hepatocyte iron could stimulate ferroportin synthesis and iron efflux from hepatocytes into plasma by relieving the inhibition of ferroportin translation by iron-regulatory proteins (IRPs) interacting with 5′ iron-regulatory element (5′ IRE) in the ferroportin mRNA, and possibly by other mechanisms.

[5] = system: Hamp1-/- mice; assay: Prevention study: 2 weeks daily PR65 in iron-depleted hepcidin knockout mice on iron-loading diet
Description: PR65 was administered subcutaneously in 100 μl of SL220 solubilizer. Short-term studies were carried out for up to 48 hours to establish the effectiveness of a single injection. Long-term studies (“prevention” and “treatment”) were carried out for 2 weeks using daily injections and iron and hematological parameters measured 24 hours after the last injection.
To test the ability of PR65 to prevent, inhibit, or reduce iron loading (“prevention” studies), male Hamp1^−/− mice were iron-depleted by placing them on a low-iron diet (4 ppm iron) for 2 months starting at the age of 5-6 weeks. […] A group of mice was analyzed immediately after iron depletion (baseline group), and the remaining animals were switched to an iron-loading diet (standard chow, about 300 ppm Fe) and received daily subcutaneous injection of solvent or PR65 (20, 50 or 100 nmoles) for 2 weeks. All mouse diets were obtained from Harlan-Teklad (Madison, Wis.).
Serum iron and non-heme iron concentrations were determined as previously described (Ramos E, et al. (2011) Hepatology 53(4):1333-1341), using acid treatment followed by a colorimetric assay for iron quantitation (Genzyme, Cambridge, Mass.). […] Complete blood counts were obtained with a HemaVet blood analyzer (Drew Scientific, Oxford, Conn.).
After iron depletion, a group of mice was analyzed to establish the baseline iron and hematological parameters and the rest of the mice were placed on an iron-loading diet (300 ppm Fe) for 2 weeks while simultaneously receiving daily subcutaneous injections of solven only (control) or PR65 (20, 50 or 100 nmoles) in solvent. […] Hemoglobin concentrations were monitored to detect potential iron-restrictive effects of hepcidin excess on erythropoiesis.

[6] = ferroportin-GFP internalization, FIG. 3

Compound: CC[C@H](C)[C@H](NC(=O)[C@H](CS)NC(=O)[C@@H](NC(=O)[C@@H]1CCCN1C(=O)[C@H](Cc1ccccc1)NC(=O)[C@H](Cc1c[nH]cn1)NC(=O)[C@@H](NC(=O)[C@@H](N)CC(=O)O)[C@@H](C)O)[C@@H](C)CC)C(=O)N[C@@H](Cc1ccccc1)C(N)=O [Hep9]
serum iron ([1]; 50 μg per mouse i.p. in PBS, after 4 hours): did not result in a serum iron decrease

Compound: CC[C@@H](C)[C@@H](NC(=O)[C@@H](Cc1ccccc1)NC(=O)CCOCCOCCOCCOCCOCCOCCOCCOCCOCCOCCOCCOCCNC(=O)[C@@H](CC(=O)O)NC(=O)CC[C@@H](C)[C@H]1CC[C@H]2[C@@H]3[C@@H](O)C[C@@H]4C[C@H](O)CC[C@]4(C)[C@H]3CC[C@]12C)C(=O)N[C@H](CS)C(=O)N[C@@H](C(=O)N1CCC[C@@H]1C(=O)N[C@H](Cc1ccccc1)C(=O)N[C@H](Cc1c[nH]cn1)C(=O)N[C@@H](C(=O)N[C@H](CC(=O)O)C(N)=O)[C@H](C)O)[C@H](C)CC [PR24] (Ursodeoxycholyl-[dD][PEG12][dF][dI][dC][dI][dP][dF][dH][dT][dD]-NH2)
active in vivo [1]: *

EC50 ([2]; Table 1, 24 h peptide treatment, 50% of maximal loss of fluorescence by Hep25, read-out: EC50): 20 nM
Compound: CCCCCCCCCCCCCCCC(=O)NCCOCCOCCOCCOCCOCCOCCOCCOCCOCCOCCOCCOCCC(=O)N[C@H](Cc1ccccc1)C(=O)N[C@@H](C(=O)N[C@H](CS)C(=O)N[C@@H](C(=O)N1CCC[C@@H]1C(=O)N[C@H](Cc1ccccc1)C(=O)N[C@H](Cc1c[nH]cn1)C(=O)N[C@@H](C(=O)N[C@H](CC(=O)O)C(N)=O)[C@H](C)O)[C@H](C)CC)[C@H](C)CC [PR27]
serum iron ([1]; 20 nmoles i.p. in PBS): comparable to that caused by i.p. administration of 20 nmoles Hep25 | serum iron ([1]; 200 nmoles i.p. in PBS): even greater decrease | serum iron ([1]; 200 nmoles oral by gavage in Cremophor EL solution): caused a decrease in serum iron | active in vivo [1]: *

Compound: CCCCCCCCCCCCCCCC(=O)NC[C@H](NC(=O)CCCCCCCCCCCCCCC)C(=O)NCCOCCOCCOCCOCCOCCOCCOCCOCCOCCOCCOCCOCCC(=O)N[C@H](Cc1ccccc1)C(=O)N[C@@H](C(=O)N[C@H](CS)C(=O)N[C@@H](C(=O)N1CCC[C@@H]1C(=O)N[C@H](Cc1ccccc1)C(=O)N[C@H](Cc1c[nH]cn1)C(=O)N[C@@H](C(=O)N[C@H](CC(=O)O)C(N)=O)[C@H](C)O)[C@H](C)CC)[C@H](C)CC [PR28] (Palmitoyl-[Dap](Palmitoyl)[PEG12][dF][dI][dC][dI][dP][dF][dH][dT][dD]-NH2)
serum iron ([1]; 20 nmoles i.p. in liposomal solution): lesser ability to decrease serum iron than PR27

Compound: CCCCCCCCCCCCCCCC(=O)NCCCOCCOCCOCCCNC(=O)COCCOCCOCCNC(=O)C[C@H](Cc1ccccc1)NC(=O)[C@H](CCCNC(=N)N)NC(=O)[C@H](CS)NC(=O)[C@H](CCCNC(=N)N)NC(=O)C[C@@H]1CCCN1C(=O)[C@@H](NC(=O)[C@H](Cc1c[nH]cn1)NC(=O)[C@@H](NC(=O)[C@H](CC(=O)O)NC)[C@@H](C)O)C(c1ccccc1)c1ccccc1 [PR57] (H-[NMeD]TH[Dip][β3hP]RCR[β3hF][AEEEA]-{TTDA(Palmitoyl)}; N-terminus and C-terminus assumed)
Active @ 20 nmoles/mouse IP [3]: Y

Compound: CCCCCCCCCCCCCCCC(=O)NCCCOCCOCCOCCCNC(=O)COCCOCCOCCNC(=O)[C@H](Cc1ccccc1)NC(=O)C1(NC(=O)[C@H](CS)NC(=O)C2(NC(=O)[C@@H]3CCCN3C(=O)[C@@H](NC(=O)[C@H](Cc3c[nH]cn3)NC(=O)[C@@H](NC(=O)CNCC(=O)O)[C@@H](C)O)C(c3ccccc3)c3ccccc3)CCCCC2)CCCCC1 [PR60]
Active @ 20 nmoles/mouse IP [3]: Y*

Compound: CCCCCCCCCCCCCCCC(=O)NCCCOCCOCCOCCCNC(=O)C[C@H](Cc1ccccc1)NC(=O)[C@H](CCCNC(=N)N)NC(=O)[C@H](CS)NC(=O)[C@H](CCCNC(=N)N)NC(=O)C[C@@H]1CCCN1C(=O)[C@@H](NC(=O)[C@H](Cc1c[nH]cn1)NC(=O)[C@@H](NC(=O)CNCC(=O)O)[C@@H](C)O)C(c1ccccc1)c1ccccc1 [PR65]
decrease in hemoglobin [4]: 2 g/dL | hemoglobin levels ([5]; 20 nmoles per day s.c., 2 weeks): did not change significantly | reduction of hemoglobin concentration ([5]; 50 nmoles per day s.c., 2 weeks): 3 g/dL | anemia ([5]; 100 nmoles daily, 2 weeks): moderately anemic | reduction of hemoglobin concentration ([5]; 100 nmoles per day s.c., 2 weeks): 5 g/dL | maximal tolerated dose ([5]; daily s.c. dosing): 50 nmol

hepcidin activity relative to Hep25 (in words) [2]: quite active | potency relative to Hep25 on a mass basis, times less potent [2, 6]: about 4 times | potency relative to Hep25 on a molar basis, times less potent [2, 6]: about 10 times
Compound: DTHFPIAIFC-NH2 [Hep10]

Compound: T2A: Hep25 with alanine substitution T2A (DAHFPICIFCCGCCHRSKCGMCCKT; disulfide (positions not given here); not fully specified (C-terminus); also: four disulfide bonds, pairing not given here; UniProt P81172 60-84, looked up, variant T2A)
hepcidin activity relative to Hep25 (in words) [2]: did not substantially impact hepcidin activity
